Active and inactive are the calls of the source.
What was measured:
[1] = HEK293T cytotoxicity, dose response, cytotoxicity control for miR-122 modulator project, cell-based, inhibitor set, cherry-pick, set 2 (AID 720697); type: functional
[2] = HEK293T cytotoxicity, dose response, cytotoxicity control for miR-122 modulator project, cell-based, activator set, cherry-pick (AID 720690); type: functional;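 further: HEK293T human cells scored for general mammalian cytotoxicity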
[3] = system: Streptococcus sp. 'group A'; assay: growth inhibition of control SK(-) GAS strain, dose response, counter-screen for streptokinase expression inhibitor project, luminescence, kanamycin, BacTiterGlo, confirmation (AID 1900); type: functional, organism-based
Streptococcus = assay: Group A Streptococcus viability loss, dose response, counter-screen for streptokinase expression inhibitor project, luminescence, BacTiterGlo (AID 1915); type: functional, organism-based;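 further: potency for reduction of bacterial viability or growth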
[4] = human group III sPLA2 inhibitors, dose response, biochemical, QFRET, IC50 (AID 743457);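 further: green fluorescence rise as the enzyme cleaves BODIPY PC-A2 in liposomes; potency for inhibition of the enzyme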
cells [5] = type: functional, cell-based
cells [6] = type: functional, cell-based; remark: listed apart in the source
cells [7] = type: functional, cell-based; remark: listed apart in the source
cells [8] = type: functional, cell-based; remark: listed apart in the source
[9] = inhibitors of firefly luciferase expression or activity, dose response, H4 neuroglioma cells, luminescence (AID 1990); type: functional, cell-based
HEK293 [10] = assay: NOD1 signaling inhibitors, primary screen, cell-based, luminescence, uHTS (AID 1578); type: functional; details: Homo sapiens
HEK293 [11] = assay: cells; type: functional, cell-based; details: Homo sapiens
[12] = Luminescence Cell-Based Dose Response HTS to Identify Inhibitors of 5'UTR Stem-Loop Driven Prion Protein mRNA Translation in H4 Neuroglioblastoma Cells. [Related pubchem assays: 1827 (Project Summary), 1813 (Primary HTS)]; type: functional
[13] = inhibitors of SNCA 5'UTR-driven reporter translation, confirmation, H4 neuroglioma cells, luminescence (AID 1988); type: functional, cell-based
HEK293 [14] = assay: cells; type: functional, cell-based; details: Homo sapiens; remark: listed apart in the source
HEK293 [15] = assay: NOD2 signaling inhibitors in MDP-stimulated cells, cell-based, uHTS, luminescence (AID 2001); type: functional; details: Homo sapiens
[16] = inhibitors of intracellular T. cruzi replication, confirmation, NIH3T3 host cells, beta-gal luminescence (AID 2044); type: functional, cell-based;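 further: intracellular parasites grown in NIH/3T3 mouse fibroblasts as host cells; luminescent beta-galactosidase reporter signal from transgenic T. cruzi replicating inside host cells; inhibitors lower the luminescence signal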
[17] = growth suppression of PTEN-null colon cells, dose response, cell-based, HCT116 PTEN knockout (AID 1047); type: functional;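 further: HCT116 colon tumor cells with PTEN knocked out; cells exposed to compound for 60 hours before readout; potency for loss of cell viability measured by luminescence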
[18] = cytotoxicity toward NIH3T3 fibroblasts, dose response, counter-screen, cell-based, ATP luminescence, mouse fibroblasts (AID 2010); type: functional;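 further: cells exposed to compound for about 90 hours before reading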
[19] = growth suppression of beta-catenin-knockout colon cells, dose response, cell-based, HCT116, human colon tumor (AID 1045); type: functional;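 further: HCT116 colon tumor cells with beta catenin knocked out; cells exposed to compound for 60 hours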
[20] = Luminescence Cell-Based Dose Retest to Confirm Inhibitors of Cancer Stem Cells. [Related pubchem assays (depositor defined):AID2717, AID2721]; type: functional; details: Homo sapiens
INS1 = assay: beta cell apoptosis inhibitors, cytokine rescue, dose response, luminescence, retest (AID 449756); type: functional, cell-based; details: Rattus norvegicus;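 further: cell death triggered by IL-1 beta plus TNF-alpha plus IFN-gamma mixture; protective hits raise ATP signal compared with cytokine alone wells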
[21] = Shn3 3'UTR reporter inhibitors, dose response, cell-based, Clone20 osteoblasts, firefly luciferase, cherry-picked (AID 624132); type: functional;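 further: firefly luciferase luminescence from reporter carrying the Shn3 3'UTR in osteoblasts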
[22] = HepG2 cell cytotoxicity, dose response, cytotoxicity control for Shn3 inhibitor project, CellTiter-Glo, cherry-picked (AID 624134); type: functional, cell-based
[23] = control 3'UTR Renilla luciferase suppression, dose response, counter-screen for Shn3 inhibitor project, cell-based, Clone20-Shn3RL, cherry-picked (AID 624133); type: functional
[24] = target: Photoreceptor-specific nuclear receptor (Homo sapiens, UniProt Q9Y5X4); type: functional, cell-based;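 further: CHO-S cells with Gal4-NCOR and VP16-NR2E3 two-hybrid luciferase reporter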
Sequence of Photoreceptor-specific nuclear receptor (Q9Y5X4 whole entry, the tested form may be a part): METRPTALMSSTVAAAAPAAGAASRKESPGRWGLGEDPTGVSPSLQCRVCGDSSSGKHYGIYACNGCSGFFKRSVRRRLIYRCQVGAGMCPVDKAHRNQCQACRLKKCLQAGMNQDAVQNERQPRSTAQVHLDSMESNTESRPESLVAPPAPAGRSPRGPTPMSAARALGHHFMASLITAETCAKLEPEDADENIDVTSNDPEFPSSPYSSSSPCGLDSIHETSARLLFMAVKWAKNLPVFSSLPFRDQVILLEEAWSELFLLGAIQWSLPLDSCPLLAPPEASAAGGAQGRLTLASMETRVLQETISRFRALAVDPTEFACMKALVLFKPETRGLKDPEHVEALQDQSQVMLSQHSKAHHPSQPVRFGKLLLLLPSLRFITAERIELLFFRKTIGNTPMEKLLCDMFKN

[25] = inhibitors of HIV Env-driven cell fusion, dose response, cherry-pick (AID 652057); type: functional, cell-based
[26] = CEM21 lymphoblast cell cytotoxicity, dose response, cytotoxicity control for viral fusion inhibitor project, CellTiter-Glo luminescence, cherry-picked (AID 652042); type: functional, cell-based;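 further: potency for signal decrease meaning cytotoxicity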
[27] = off-target signal loss in HeLa-CEM21 co-culture – HeLa F-luc CTL cells, cherry-picked, counter-screen for HIV-1 Env fusion inhibitor project, dose response (AID 652040); type: functional, cell-based;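 further: potency for signal decrease marking cytotoxic or nonspecific inhibition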
[28] = target: T1, Endoribonuclease toxin MazF (Escherichia coli K-12, UniProt P0AE70); assay: MazF toxin RNase activators, dose response, biochemical, fluorescence, single-stranded RNA substrate, uHTS hits (AID 588481); type: functional
T1 sequence (P0AE70 whole entry): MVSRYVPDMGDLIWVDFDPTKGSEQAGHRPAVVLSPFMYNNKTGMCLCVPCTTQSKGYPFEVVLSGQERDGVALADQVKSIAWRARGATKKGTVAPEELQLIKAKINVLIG

[29] = target: T1, Endoribonuclease toxin MazF; assay: fluorescent RNA oligo signal without MazF, dose response, counter-screen for MazEF activator project, biochemical, fluorescence, single-stranded RNase substrate (AID 588502); type: functional
[30] = target: T2, Sentrin-specific protease 1 (Homo sapiens, UniProt Q9P0U3); assay: Dose response confirmation of small molecule inhibitors of the catalytic domain of the SUMO protease, SENP1 in a FRET assay.; type: functional; details: read-out: IC50_Mean
T2 sequence (Q9P0U3 whole entry): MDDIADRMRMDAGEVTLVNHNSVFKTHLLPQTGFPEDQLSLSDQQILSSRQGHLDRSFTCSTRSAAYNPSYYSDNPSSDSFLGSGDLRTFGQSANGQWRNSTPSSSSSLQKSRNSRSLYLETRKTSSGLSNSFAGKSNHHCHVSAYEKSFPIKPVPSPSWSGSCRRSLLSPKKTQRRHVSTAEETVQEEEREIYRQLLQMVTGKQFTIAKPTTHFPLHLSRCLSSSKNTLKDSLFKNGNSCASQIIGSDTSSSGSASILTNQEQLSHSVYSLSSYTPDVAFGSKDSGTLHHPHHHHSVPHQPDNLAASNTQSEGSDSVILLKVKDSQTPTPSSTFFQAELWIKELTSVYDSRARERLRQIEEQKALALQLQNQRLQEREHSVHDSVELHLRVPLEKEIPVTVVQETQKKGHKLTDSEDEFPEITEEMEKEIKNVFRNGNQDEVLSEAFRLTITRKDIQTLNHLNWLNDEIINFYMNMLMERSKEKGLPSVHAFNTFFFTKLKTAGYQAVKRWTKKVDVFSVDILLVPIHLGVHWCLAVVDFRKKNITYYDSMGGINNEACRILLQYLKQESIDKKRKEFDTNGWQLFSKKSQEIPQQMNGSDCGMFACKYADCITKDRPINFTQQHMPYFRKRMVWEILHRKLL

For `C=CCNC(=S)NNC(=O)Cn1c(-c2ccccc2)cc(=O)n2ncnc12`, the AC50 [1] was 4.83 µM (active).

With `CC(=O)c1ccc(Nc2nc3ccc(C)cc3n3cnnc23)cc1` the AC50 [2] was 0.551 µM (active).

For `O=C(Cc1ccccc1)NNC(=S)NC(=O)c1cccs1`, the EC50 [3] was 3.33 µM (active), the EC50 (Streptococcus) was 7.51 µM (active) and the IC50 [4] was > 122 µM (inactive).

In the case of `CCN1CN(CCc2ccccc2)CN=C1S`, the EC50 (cells [5]) is reported as > 350 µM (not active), the EC50 (cells [6]) is reported as > 350 µM (not active) and the IC50 (cells [7]) is reported as > 29.9 µM (inactive). The EC50 (cells [8]) was > 29.9 µM (inactive).

For `CCN(CC)S(=O)(=O)c1ccc(NC(=O)Nc2cccc(C(F)(F)F)c2)cc1`, the EC50 [9] was > 120 µM (not active), the EC50 (HEK293 [10]) was > 20 µM (inactive) and the IC50 (HEK293 [11]) was 3.14 µM (active). For the same molecule, the EC50 [12] was 14.9 µM (active), the EC50 [13] was 11.1 µM (active) and the IC50 (HEK293 [14]) was 8.73 µM (active). For the same molecule, the IC50 (HEK293 [15]) was 4.48 µM (inactive), the EC50 [16] was 1.67 µM (active) and the EC50 [17] was 4.56 µM (active). The EC50 [18] was > 60 µM (not active), the EC50 [19] was 6.35 µM (active) and the AC50 [20] was 2.13 µM (active). For the same molecule, the AC50 (INS1) was 4.6 µM (active), the AC50 [21] was 5.6 µM (active) and the AC50 [22] was 27.6 µM (active). For the same molecule, the AC50 [23] was 10.8 µM (active), the IC50 [24] was 6.94 µM (active) and the AC50 [25] was 9.67 µM (active). For the same molecule, the AC50 [26] was 13.6 µM (active), the AC50 [27] was 10.3 µM (active) and the AC50 [1] was 9.71 µM (active). For the same molecule, the AC50 [2] was 5.75 µM (active).

With `Oc1ccc(Cl)cc1C1=Nc2ccccc2N=C(c2ccco2)C1` the EC50 [28] was > 99 µM (inactive), the EC50 [29] was > 99 µM (inactive) and the IC50 [30] was 8.31 µM (active).
